Test results as given in US8648111B2, “N1-2-thiophene-2-ylethyl-N2-substituted biguanide derivate, preparation method thereof, and pharmaceutical composition containing the same as active ingredients” (Hanall Biopharma Co., Ltd., priority 2008, dated 2014).
Values joined by “and” are separate entries in the source; they are usually repeats but may differ in a detail not shown here. Identical values can stand only once. Like-named read-outs stand apart in the source and are kept apart here.

Assays:
Type in all cases: cell-based
HepG2 cells [1] = experiment: Measurement of triglyceride (triglyceride content in cell lysates, Amplex red)
Protocol: (§1) 2 mM metformin was used as a comparative compound for each of the plates (control group).
HepG2 cells (ATCC: American Type Culture Collection) were cultured in 1% serum-containing media (DMEM (Gibco), FBS (Gibco)) for 24 hours, and then treated with 100 μM or 500 μM of each of the compounds prepared in Examples for 24 hours. Then, the cells were disrupted with a lysis solution (0.1 M potassium phosphate, pH 7.4, 0.05 M NaCl, 5 mM cholic acid, 0.1% Triton X-100). […] After completion of the reaction, the content of triglyceride formed in the cell lysates was measured at a wavelength of 560/590 nm (ex/em) using a fluorescence microscope.
A lower measurement value means an increased triglyceride synthesis inhibitory ability.

HepG2 cells [2] = experiment: Measurement of cholesterol synthesis inhibitory ability (cholesterol content in cell lysates, Amplex red)
Protocol: as §1
A cholesterol synthesis inhibitory ability, which is an important function of AMPK (AMP-activated protein kinase), was measured using HepG2 cells (ATCC: American Type Culture Collection) as a hepatic cell model according to the following procedure.
The hepatic cell model HepG2 cells were cultured in 1% serum-containing media (DMEM (Gibco), FBS (Gibco)) for 24 hours, and then treated with 100 μM or 500 μM of each of the compounds prepared in Examples for 24 hours. Then, the cells were disrupted with a lysis solution (0.1 M potassium phosphate, pH 7.4, 0.05 M NaCl, 5 mM cholic acid, 0.1% Triton X-100 (Sigma)). To the disrupted cells was added the same volume of a reaction solution (2 U/mL of a cholesterol oxidizing agent, 2 U/mL of a peroxidase, 0.2 U/mL of a cholesterol esterase, and 300 μM of Amplex red as a fluorescent factor (Molecular Probe)), which was allowed to react at 37° C. for 30 minutes. After completion of the reaction, the content of cholesterol formed in the cell lysates was measured at a wavelength of 560/590 nm (ex/em) using a fluorescence microscope.
A lower measurement value means an increased cholesterol synthesis inhibitory ability.

C2C12 cells = experiment: Measurement of glucose absorption ability (3H-deoxy-glucose uptake with insulin); conditions: 100 uM compound with 1 μM insulin, 24 hours, differentiated C2C12, higher value = stronger, more than 200% counts as glucose absorption ability
Protocol: as §1
C2C12 cells (ATCC: American Type Culture Collection), a muscle cell model, were induced to differentiate into muscle cells in 2% bovine fetal serum-containing media (DMEM (Gibco), FBS (Gibco)) for 6 days. The C2C12 cells which differentiated into muscle cells were transferred to serum-free low glucose media (DMEM (Gibco), FBS (Gibco)), treated with 100 μM of each of the compounds, and then cultured with 1 μM of insulin for 24 hours. After cultivation, the cells were treated with 1 μCi ^3H-deoxy-glucose (Amersham Pharmacia) and 10 μM deoxy-glucose (Sigma) at 37° C. for 15 minutes. The media were removed therefrom, and the cells were washed twice with PBS (phosphate buffered saline). The washed cells were treated with 0.1N NaOH and neutralized with 1N HCl. The content of glucose absorbed into the cells was measured with a liquid scintillation counter.
A higher measurement value means a stronger ability to reduce insulin resistance.

HepG2 cells [3] = experiment: Measurement of gluconeogenesis inhibitory ability (14C-lactate, glucose formed in cells)
Protocol: as §1
HepG2 cells (ATCC: American Type Culture Collection) were cultured in 10% serum-containing high glucose media, transferred to no serum-containing low glucose media (DMEM (Gibco), FBS (Gibco)), and then treated with 100 μM of each of the compounds for 24 hours. Then, the cells were treated with 0.5 μCi ^14C-lactate (Amersham Pharmacia) and 10 mM L-lactate (Sigma), and cultured for 4 hours. After cultivation, the media were removed therefrom, and the cells were washed with PBS, treated with 0.1N NaOH and kept at room temperature for 1 hour. Then, the cells were neutralized with 1N HCl, and the content of glucose formed in the cells was measured with a liquid scintillation counter.
A lower measurement value means an increased gluconeogenesis inhibitory ability.

[4] = 100 uM compound, 24 hours, HepG2, lower value = stronger triglyceride synthesis inhibition
[5] = 100 uM compound, 24 hours, HepG2, lower value = stronger cholesterol synthesis inhibition
[6] = 100 uM compound, 24 hours, HepG2, lower value = stronger gluconeogenesis inhibition, 100 µM
[7] = 500 uM compound, 24 hours, HepG2, lower value = stronger triglyceride synthesis inhibition
[8] = 500 uM compound, 24 hours, HepG2, lower value = stronger cholesterol synthesis inhibition
[9] = 100 uM compound, 24 hours, HepG2, lower value = stronger gluconeogenesis inhibition
[10] = Metformin 2 mM, control group of each plate, HepG2

| Molecule | Triglyceride (100 uM) Aver. (HepG2 cells [1]; [4]) | Cholesterol (100 uM) Aver. (HepG2 cells [2]; [5]) | Glucose absorption (100 uM) Aver. (C2C12 cells) | Triglyceride (500 uM) Aver. (HepG2 cells [1]; [7]) | Cholesterol (500 uM) Aver. (HepG2 cells [2]; [8]) | Gluconeogenesis inhibition (100 uM) Aver. (HepG2 cells [3]; [9]) | further results |
| --- | --- | --- | --- | --- | --- | --- | --- |
| CN=C(NCCc1cccs1)NC(=N)N.Cl [Example 11, N1-2-(thiophen-2-ylethyl)-N2-methyl biguanide hydrochloride (isomer)] | 74.98 | 71.14 | 321.21% | – | – | – | Gluconeogenesis inhibition (100 uM) Aver. (HepG2 cells [3]; [6]): 25.03 |
| Cl.N=C(N)NC(=Nc1ccc(Oc2ccccc2)cc1)NCCc1cccs1 [Example 36, N1-2-(thiophen-2-ylethyl)-N2-(4-phenoxyphenyl) biguanide hydrochloride] | 20.95 | 31.22 | 4.50% | 17.89 | 34.74 | 1.54 | – |
| N1-2-(thiophen-2-ylethyl)-N2-(4-bromobenzyl) biguanide hydrochloride [Example 37] | – | – | 7.71% | – | – | – | Triglyceride (100 uM) Aver. (HepG2 cells [1]): 61.41; Triglyceride (500 uM) Aver. (HepG2 cells [1]): 20.15; Cholesterol (100 uM) Aver. (HepG2 cells [2]): 28.36; Cholesterol (500 uM) Aver. (HepG2 cells [2]): 30.84; Gluconeogenesis inhibition (100 uM) Aver. (HepG2 cells [3]): 89.96 |
| Cl.N=C(N)NC(=Nc1ccc(-c2ccccc2)cc1)NCCc1cccs1 [Example 35, N1-2-(thiophen-2-ylethyl)-N2-(4-phenylphenyl) biguanide hydrochloride] | 18.94 | 28.27 | 35.00% | 14.92 | 30.49 | 109.62 | – |
| N1-2-(thiophen-2-ylethyl)-N2-t-butyl biguanide hydrochloride [Example 7] | 74.43 | 42.51 | 21.59% | 16.49 | 2.79 | 39.98 | – |
| C=CCN=C(NCCc1cccs1)NC(=N)N.Cl [Example 44, N1-2-(thiophen-2-ylethyl)-N2-allyl biguanide hydrochloride] | – | – | 87.78% | – | – | – | Triglyceride (100 uM) Aver. (HepG2 cells [1]): 96.99; Triglyceride (500 uM) Aver. (HepG2 cells [1]): 74.60; Cholesterol (100 uM) Aver. (HepG2 cells [2]): 85.73; Cholesterol (500 uM) Aver. (HepG2 cells [2]): 82.40; Gluconeogenesis inhibition (100 uM) Aver. (HepG2 cells [3]): 77.80 |
| Cc1cccc(N=C(NCCc2cccs2)NC(=N)N)c1.Cl [Example 27, N1-2-(thiophen-2-ylethyl)-N2-(3-methylphenyl) biguanide hydrochloride] | 46.45 | 33.26 | 12.91% | 20.64 | 28.82 | 56.42 | – |
| COc1cc(N=C(NCCc2cccs2)NC(=N)N)cc(OC)c1.Cl [Example 32, N1-2-(thiophen-2-ylethyl)-N2-(3,5-dimethoxyphenyl) biguanide hydrochloride] | 70.80 | 48.02 | 11.68% | 28.47 | 26.70 | 152.19 | – |
| CN=C(NCCc1cccs1)NC(=N)N.Cl [Example 10, N1-2-(thiophen-2-ylethyl)-N2-methyl biguanide hydrochloride (isomer)] | 76.16 | 52.29 | 6.91% | – | – | – | Gluconeogenesis inhibition (100 uM) Aver. (HepG2 cells [3]; [6]): 5.72 |
| CCCCN=C(NCCc1cccs1)NC(=N)N.Cl [Example 25, N1-2-(thiophen-2-ylethyl)-N2-butyl biguanide hydrochloride] | – | – | – | – | – | – | Triglyceride (100 uM) Aver. (HepG2 cells [1]; 100 uM compound, 24 hours, HepG2, lower value = stronger triglyceride synthesis inhibition, hydrochloride): 19.21; Triglyceride (500 uM) Aver. (HepG2 cells [1]; 500 uM compound, 24 hours, HepG2, lower value = stronger triglyceride synthesis inhibition, hydrochloride): 17.02; Cholesterol (100 uM) Aver. (HepG2 cells [2]; 100 uM compound, 24 hours, HepG2, lower value = stronger cholesterol synthesis inhibition, hydrochloride): 32.66; Cholesterol (500 uM) Aver. (HepG2 cells [2]; 500 uM compound, 24 hours, HepG2, lower value = stronger cholesterol synthesis inhibition, hydrochloride): 19.87; Glucose absorption (100 uM) Aver. (C2C12 cells; hydrochloride): 2.76%; Gluconeogenesis inhibition (100 uM) Aver. (HepG2 cells [3]; 100 uM compound, 24 hours, HepG2, lower value = stronger gluconeogenesis inhibition, hydrochloride, 100 µM): 0.00 |
| CC(C)N=C(NCCc1cccs1)NC(=N)N.Cl [Example 41, N1-2-(thiophen-2-ylethyl)-N2-isopropyl biguanide hydrochloride] | 93.91 | 87.73 | 150.65% | 81.62 | 75.54 | 97.81 | – |
| CCCCCCN=C(NCCc1cccs1)NC(=N)N.Cl [Example 4, N1-2-(thiophen-2-ylethyl)-N2-hexyl biguanide hydrochloride] | 22.80 | 33.81 | 14.31% | 3.22 | 51.74 | 26.40 | – |
| COCCN=C(NCCc1cccs1)NC(=N)N.Cl [Example 24, N1-2-(thiophen-2-ylethyl)-N2-methoxyethyl biguanide hydrochloride] | 77.91 | 92.58 | 114.91% | 71.93 | 75.75 | 78.89 | – |
| CN=C(NCCc1cccs1)NC(=N)N.Cl [Example 12, N1-2-(thiophen-2-ylethyl)-N2-methyl biguanide hydrochloride (isomer)] | 67.43 | 69.94 | 221.61% | – | – | – | Gluconeogenesis inhibition (100 uM) Aver. (HepG2 cells [3]; [6]): 13.05 |
| Cl.N=C(N)NC(=Nc1cccc2ccccc12)NCCc1cccs1 [Example 3, N1-2-(thiophen-2-ylethyl)-N2-1-naphthyl biguanide hydrochloride] | 5.28 | 30.90 | 15.10% | −6.37 | 31.14 | 3.73 | – |
| CCCN=C(NCCc1cccs1)NC(=N)N.Cl [Example 13, N1-2-(thiophen-2-ylethyl)-N2-propyl biguanide hydrochloride] | 59.3 | 77.1 | 110.2% | 48.9 | 61.7 | 73.51 | – |
| Cl.N=C(N)NC(=NCC1CC1)NCCc1cccs1 [Example 43, N1-2-(thiophen-2-ylethyl)-N2-cyclopropylmethyl biguanide hydrochloride] | 90.52 | 88.47 | 196.03% | 79.92 | 78.80 | 99.28 | – |
| CN(C)C(=N)N=C(N)N [Metformin, reference compound] | – | – | – | – | – | – | Triglyceride Aver. (HepG2 cells [1]; [10]): 81.14 and 69.58 and 73.61 and 70.05 and 74.57; Cholesterol Aver. (HepG2 cells [2]; [10]): 65.31 and 74.50 and 85.91 and 70.69 and 73.31; Gluconeogenesis inhibition Aver. (HepG2 cells [3]; [10]): 39.79 and 59.14 and 53.09 and 78.33 and 64.50 |
